Experimental data reported in patent US10730863B2, “Bridged bicyclic compounds as farnesoid X receptor modulators” (BRISTOL-MYERS SQUIBB COMPANY, priority 2017, dated 2020).

Target: FXR (Homo sapiens (Human), UniProt Q96RI1)
Experiment: FXR EC50 (FXR agonist activity reported with each example)
Type: cell-based

Chain of FXR (Q96RI1 262-486): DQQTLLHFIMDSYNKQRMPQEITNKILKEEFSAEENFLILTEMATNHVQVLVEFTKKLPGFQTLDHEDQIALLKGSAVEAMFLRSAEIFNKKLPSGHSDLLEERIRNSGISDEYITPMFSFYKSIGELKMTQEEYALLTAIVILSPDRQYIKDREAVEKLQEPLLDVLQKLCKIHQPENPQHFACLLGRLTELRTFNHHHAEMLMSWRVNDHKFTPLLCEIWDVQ

SMILES | EC50 [nM]
COc1ccc(-c2noc(C34CCC(/C=C/c5c(-c6c(Cl)cncc6Cl)noc5C5CC5)(CC3)OC4)n2)cc1C(=O)O [Example 496, (E)-5-(5-(1-(2-(5-cyclopropyl-3-(3,5-dichloropyridin-4-yl)isoxazol-4-yl)vinyl)-2-oxabicyclo[2.2.2]octan-4-yl)-1,2,4-oxadiazol-3-yl)-2-methoxybenzoic acid] | 1000
O=C(O)c1cc(OC(F)F)cc(-c2noc(C34CCC(/C=C/c5c(-c6c(Cl)cncc6Cl)noc5C5CC5)(CC3)OC4)n2)c1 [Example 497, (E)-3-(5-(1-(2-(5-cyclopropyl-3-(3,5-dichloropyridin-4-yl)isoxazol-4-yl)vinyl)-2-oxabicyclo[2.2.2]octan-4-yl)-1,2,4-oxadiazol-3-yl)-5-(difluoromethoxy)benzoic acid] | 460
O=C(O)c1cc(OC(F)F)c2cc(OCC34CCC(/C=C/c5c(-c6c(Cl)cncc6Cl)noc5C5CC5)(CC3)CO4)ccc2n1 [Example 498, (E)-6-((4-(2-(5-cyclopropyl-3-(3,5-dichloropyridin-4-yl)isoxazol-4-yl)vinyl)-2-oxabicyclo[2.2.2]octan-1-yl)methoxy)-4-(difluoromethoxy)quinoline-2-carboxylic acid] | 250
O=C(O)c1cc(OCC23CCC(/C=C/c4c(-c5c(Cl)cncc5Cl)noc4C4CC4)(CC2)CO3)cc(OC(F)F)c1 [Example 499, (E)-3-((4-(2-(5-cyclopropyl-3-(3,5-dichloropyridin-4-yl)isoxazol-4-yl)vinyl)-2-oxabicyclo[2.2.2]octan-1-yl)methoxy)-5-(difluoromethoxy)benzoic acid] | 160
O=C(O)c1cc(C(F)(F)F)c2cc(OCC34CCC(/C=C/c5c(-c6c(Cl)cncc6Cl)noc5C5CC5)(CC3)CO4)ccc2n1 [Example 500, (E)-6-((4-(2-(5-cyclopropyl-3-(3,5-dichloropyridin-4-yl)isoxazol-4-yl)vinyl)-2-oxabicyclo[2.2.2]octan-1-yl)methoxy)-4-(trifluoromethyl)quinoline-2-carboxylic acid] | 160
CC(C)Oc1cc(C(=O)O)nc2ccc(OCC34CCC(/C=C/c5c(-c6c(Cl)cncc6Cl)noc5C5CC5)(CC3)CO4)cc12 [Example 501, (E)-6-((4-(2-(5-cyclopropyl-3-(3,5-dichloropyridin-4-yl)isoxazol-4-yl)vinyl)-2-oxabicyclo[2.2.2]octan-1-yl)methoxy)-4-isopropoxyquinoline-2-carboxylic acid] | 54
O=C(O)c1cccc2nc(C34CCC(/C=C\c5c(-c6c(Cl)cccc6Cl)noc5C5CC5)(CC3)CC4)sc12 [Example 502, (Z)-2-(4-(2-(5-cyclopropyl-3-(2,6-dichlorophenyl)isoxazol-4-yl)vinyl)bicyclo[2.2.2]octan-1-yl)benzo[d]thiazole-7-carboxylic acid] | 1500
O=C(O)c1cccc2nc(C34CCC(/C=C/c5c(-c6c(Cl)cncc6Cl)noc5C5CC5)(CC3)CC4)sc12 [Example 503, (E)-2-(4-(2-(5-cyclopropyl-3-(3,5-dichloropyridin-4-yl)isoxazol-4-yl)vinyl)bicyclo[2.2.2]octan-1-yl)benzo[d]thiazole-7-carboxylic acid] | 31
O=C(O)c1cccc(-c2noc(C34CCC(/C=C/c5c(-c6c(Cl)cncc6Cl)noc5C5CC5)(CC3)CC4)n2)c1 [Example 504, (E)-3-(5-(4-(2-(5-cyclopropyl-3-(3,5-dichloropyridin-4-yl)isoxazol-4-yl)vinyl)bicyclo[2.2.2]octan-1-yl)-1,2,4-oxadiazol-3-yl)benzoic acid] | 33
O=C(O)c1ccc2nc(C34CCC(/C=C/c5c(-c6c(Cl)cncc6Cl)noc5C5CC5)(CC3)CC4)sc2c1 [Example 505, (E)-2-(4-(2-(5-cyclopropyl-3-(3,5-dichloropyridin-4-yl)isoxazol-4-yl)vinyl)bicyclo[2.2.2]octan-1-yl)benzo[d]thiazole-6-carboxylic acid] | 88
